Like-named read-outs stand apart in the source and are kept apart here.
How the values were obtained:
PARP-1 = target: T1, PARP-1 (Homo sapiens, UniProt P09874); test: PARP enzymatic assay (HT Universal Colorimetric PARP1 Assay Kit); format: biochemical; conditions: read-out: PARP-1 enzymatic inhibition IC50
T1 construct: purchased
Method in brief: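 Inhibition of PARP1 was measured with the HT Universal Colorimetric PARP1 Assay Kit. A 96-well plate was coated with histone proteins overnight at 4° C, washed with PBST, and blocked for 30 min at room temperature. Test compound and 20 μl of PARP1 (1 nM) were then added and incubated. Streptavidin-HRP (1:50) and chemiluminescent HRP substrate were added, and the signal was read on an Envision microplate reader.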

HCC1937 cells = test: Cellular PARylation assay; format: cell-based; conditions: Homo sapiens
Method in brief: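 HCC1937 cells pretreated 30 min with compound, then stimulated with 1 mM H2O2 for 10 min. Fixed cells immunostained with anti-PAR 10H and FITC secondary, with DAPI counterstain; fluorescence read on a plate reader.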

[1] = HCC1937 cells, compound 30 min then 1 mM H2O2 10 min, read-out: cellular PARylation EC50

T1 sequence (P09874 whole entry): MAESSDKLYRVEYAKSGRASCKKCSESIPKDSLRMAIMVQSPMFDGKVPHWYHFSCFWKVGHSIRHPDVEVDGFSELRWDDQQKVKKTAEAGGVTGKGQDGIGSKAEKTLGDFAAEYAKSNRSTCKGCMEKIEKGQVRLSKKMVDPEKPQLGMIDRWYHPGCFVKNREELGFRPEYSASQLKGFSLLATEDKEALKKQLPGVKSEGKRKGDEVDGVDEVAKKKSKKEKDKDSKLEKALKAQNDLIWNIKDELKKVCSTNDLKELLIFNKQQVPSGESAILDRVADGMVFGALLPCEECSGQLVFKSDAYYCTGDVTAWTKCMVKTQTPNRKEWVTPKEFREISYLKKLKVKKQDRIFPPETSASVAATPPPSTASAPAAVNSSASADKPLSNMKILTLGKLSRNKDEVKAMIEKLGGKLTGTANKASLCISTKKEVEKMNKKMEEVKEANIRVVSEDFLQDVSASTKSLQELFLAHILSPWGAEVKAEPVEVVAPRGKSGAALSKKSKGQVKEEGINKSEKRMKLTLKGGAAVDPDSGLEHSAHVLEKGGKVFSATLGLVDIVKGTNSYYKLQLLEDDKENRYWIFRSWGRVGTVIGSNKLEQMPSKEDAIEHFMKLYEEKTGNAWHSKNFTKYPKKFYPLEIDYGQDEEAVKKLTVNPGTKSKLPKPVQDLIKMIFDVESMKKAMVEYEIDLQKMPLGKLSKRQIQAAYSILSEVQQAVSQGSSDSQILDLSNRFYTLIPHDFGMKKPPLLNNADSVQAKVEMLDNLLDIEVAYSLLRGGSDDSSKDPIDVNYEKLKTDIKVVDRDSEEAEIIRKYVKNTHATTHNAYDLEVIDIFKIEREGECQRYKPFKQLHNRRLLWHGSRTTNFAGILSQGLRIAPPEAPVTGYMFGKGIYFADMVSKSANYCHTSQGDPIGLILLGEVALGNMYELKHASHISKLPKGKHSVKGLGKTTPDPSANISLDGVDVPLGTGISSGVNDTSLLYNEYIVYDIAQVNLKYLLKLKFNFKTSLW

SMILES	IC50 (PARP-1)	EC50 (HCC1937 cells; [1])	EC50 (HCC1937 cells; HCC1937, read-out: cellular PARylation EC50)
CC(C)N1CCC(c2cnn3c2[nH]c2cc(F)cc(C(N)=O)c23)CC1 [Example 10, 6-fluoro-3-(1-isopropylpiperidin-4-yl)-4H-benzo[4,5]imidazo[1,2-b]pyrazole-8-carboxamide]	1 to 100 nM	1 to 100 nM	
CN1CCC(c2cnn3c2[nH]c2cc(F)cc(C(N)=O)c23)C1 (stereo not drawn) [Example 20, 6-fluoro-3-(1-methylpyrrolidin-3-yl)-4H-benzo[4,5]imidazo[1,2-b]pyrazole-8-carboxamide]	1 to 100 nM	1 to 100 nM	
NC(=O)c1cc(F)cc2[nH]c3c(-c4ccc(C5CCCNC5)cc4)cnn3c12 (stereo not drawn) [Example 46, 6-fluoro-3-(4-(piperidin-3-yl)phenyl)-4H-benzo[4,5]imidazo[1,2-b]pyrazole-8-carboxamide]	101 to 1000 nM	> 1000 nM	
CN1CC(CN2CCC(C)(c3cnn4c3[nH]c3cc(F)cc(C(N)=O)c34)CC2)C1 [Example 79, 6-fluoro-3-(4-methyl-1-((1-methylazetidin-3-yl)methyl)piperidin-4-yl)-4H-benzo[4,5]imidazo[1,2-b]pyrazole-8-carboxamide]	1 to 100 nM	1 to 100 nM	
NCCN1CCC(c2cnn3c2[nH]c2cc(F)cc(C(N)=O)c23)CC1 [Example 13, 3-(1-(2-aminoethyl)piperidin-4-yl)-6-fluoro-4H-benzo[4,5]imidazo[1,2-b]pyrazole-8-carboxamide]	1 to 100 nM	101 to 1000 nM	
NC(=O)c1cc(F)cc2[nH]c3c(C45CC4CN(CC4CC4)C5)cnn3c12 (stereo not drawn) [Example 31, 3-(3-(cyclopropylmethyl)-3-azabicyclo[3.1.0]hexan-1-yl)-6-fluoro-4H-benzo[4,5]imidazo[1,2-b]pyrazole-8-carboxamide]	1 to 100 nM	1 to 100 nM	
Cc1nn2c([nH]c3cc(F)cc(C(N)=O)c32)c1C1(C)CCN(CC2CC2)CC1 [Example 111, 3-(1-(cyclopropylmethyl)-4-methylpiperidin-4-yl)-6-fluoro-2-methyl-4H-benzo[4,5]imidazo[1,2-b]pyrazole-8-carboxamide]	1 to 100 nM	1 to 100 nM	
CCN1CCC(c2cnn3c2[nH]c2cccc(C(N)=O)c23)CC1 [Example 27, 3-(1-ethylpiperidin-4-yl)-4H-benzo[4,5]imidazo[1,2-b]pyrazole-8-carboxamide]	1 to 100 nM	1 to 100 nM	
CCN1CCC(N2CCC(C)(c3cnn4c3[nH]c3cc(F)cc(C(N)=O)c34)CC2)CC1 [Example 86, 3-(1′-ethyl-4-methyl-[1,4′-bipiperidin]-4-yl)-6-fluoro-4H-benzo[4,5]imidazo[1,2-b]pyrazole-8-carboxamide]	1 to 100 nM	1 to 100 nM	
CC1(c2cnn3c2[nH]c2cc(F)cc(C(N)=O)c23)CCN(CC2COC2)CC1 [Example 68, 6-fluoro-3-(4-methyl-1-(oxetan-3-ylmethyl)piperidin-4-yl)-4H-benzo[4,5]imidazo[1,2-b]pyrazole-8-carboxamide]	1 to 100 nM	1 to 100 nM	
NC(=O)c1cc(F)cc2[nH]c3c(-c4ccc(F)cc4)cnn3c12 [Example 41, 6-fluoro-3-(4-fluorophenyl)-4H-benzo[4,5]imidazo[1,2-b]pyrazole-8-carboxamide]	101 to 1000 nM	> 1000 nM	
CN(C)CCN1CCC(c2cnn3c2[nH]c2cc(F)cc(C(N)=O)c23)CC1 [Example 14, 3-(1-(2-(dimethylamino)ethyl)piperidin-4-yl)-6-fluoro-4H-benzo[4,5]imidazo[1,2-b]pyrazole-8-carboxamide]	1 to 100 nM	1 to 100 nM	
CC1(c2cnn3c2[nH]c2cc(F)cc(C(N)=O)c23)CCN(CC2(N)CC2)CC1 [Example 67, 3-(1-((1-aminocyclopropyl)methyl)-4-methylpiperidin-4-yl)-6-fluoro-4H-benzo[4,5]imidazo[1,2-b]pyrazole-8-carboxamide]	1 to 100 nM	1 to 100 nM	
CC1(c2cnn3c2[nH]c2cc(F)cc(C(N)=O)c23)CCN(S(C)(=O)=O)CC1 [Example 75, 6-fluoro-3-(4-methyl-1-(methylsulfonyl)piperidin-4-yl)-4H-benzo[4,5]imidazo[1,2-b]pyrazole-8-carboxamide]	1 to 100 nM	101 to 1000 nM	
CN1CCN(C(=O)c2cnn3c2[nH]c2cc(F)cc(C(N)=O)c23)CC1 [Example 49, 6-fluoro-3-(4-methylpiperazine-1-carbonyl)-4H-benzo[4,5]imidazo[1,2-b]pyrazole-8-carboxamide]	1 to 100 nM	101 to 1000 nM	
NC(=O)c1cc(F)cc2[nH]c3c(C4CCN(CCF)CC4)cnn3c12 [Example 3, 6-fluoro-3-(1-(2-fluoroethyl)piperidin-4-yl)-4H-benzo[4,5]imidazo[1,2-b]pyrazole-8-carboxamide]	1 to 100 nM	1 to 100 nM	
CN(C)C(=O)C1CC1CN1CCC(C)(c2cnn3c2[nH]c2cc(F)cc(C(N)=O)c23)CC1 (stereo not drawn) [Example 81]	1 to 100 nM	1 to 100 nM	

SMILES	IC50 (PARP-1)	EC50 (HCC1937 cells; [1])	EC50 (HCC1937 cells; HCC1937, read-out: cellular PARylation EC50)
CN1CCCC1c1cnn2c1[nH]c1cc(F)cc(C(N)=O)c12 (stereo not drawn) [Example 25, 6-fluoro-3-(1-methylpyrrolidin-2-yl)-4H-benzo[4,5]imidazo[1,2-b]pyrazole-8-carboxamide]	1 to 100 nM	1 to 100 nM	
COC(=O)C1(c2cnn3c2[nH]c2cc(F)cc(C(N)=O)c23)CCN(CC2CC2)CC1 [Example 110, methyl 4-(8-carbamoyl-6-fluoro-4H-benzo[4,5]imidazo[1,2-b]pyrazol-3-yl)-1-(cyclopropylmethyl)piperidine-4-carboxylate]	1 to 100 nM		101 to 1000 nM
CC1(c2cnn3c2[nH]c2cc(F)cc(C(N)=O)c23)CCN(CCS(C)(=O)=O)CC1 [Example 65, 6-fluoro-3-(4-methyl-1-(2-(methylsulfonyl)ethyl)piperidin-4-yl)-4H-benzo[4,5]imidazo[1,2-b]pyrazole-8-carboxamide]	1 to 100 nM	1 to 100 nM	
NC(=O)c1cc(F)cc2[nH]c3c(C4CCN(C(=O)C5CC5)CC4)cnn3c12 [Example 8, 3-(1-(cyclopropylcarbonyl)piperidin-4-yl)-6-fluoro-4H-benzo[4,5]imidazo[1,2-b]pyrazole-8-carboxamide]	1 to 100 nM	101 to 1000 nM	
COCCN1CCC(C)(c2cnn3c2[nH]c2cc(F)cc(C(N)=O)c23)CC1 [Example 69, 6-fluoro-3-(1-(2-methoxyethyl)-4-methylpiperidin-4-yl)-4H-benzo[4,5]imidazo[1,2-b]pyrazole-8-carboxamide]	1 to 100 nM	1 to 100 nM	
CCN1CC2C(C1)C2c1cnn2c1[nH]c1cc(F)cc(C(N)=O)c12 (stereo not drawn) [Example 34, 3-(3-ethyl-3-azabicyclo[3.1.0]hexan-6-yl)-6-fluoro-4H-benzo[4,5]imidazo[1,2-b]pyrazole-8-carboxamide]	1 to 100 nM	101 to 1000 nM	
NCc1cnn2c1[nH]c1cc(F)cc(C(N)=O)c12 [Example 39, 3-(aminomethyl)-6-fluoro-4H-benzo[4,5]imidazo[1,2-b]pyrazole-8-carboxamide]	1 to 100 nM	101 to 1000 nM	
CC(C)N1CC2CC2(c2cnn3c2[nH]c2cc(F)cc(C(N)=O)c23)C1 (stereo not drawn) [Example 32, 6-fluoro-3-(3-isopropyl-3-azabicyclo[3.1.0]hexan-1-yl)-4H-benzo[4,5]imidazo[1,2-b]pyrazole-8-carboxamide]	1 to 100 nM	1 to 100 nM	
CC1(c2cnn3c2[nH]c2cc(F)cc(C(N)=O)c23)CCN(CC2(C#N)CC2)C1 (stereo not drawn) [Example 102, 3-(1-((1-cyanocyclopropyl)methyl)-3-methylpyrrolidin-3-yl)-6-fluoro-4H-benzo[4,5]imidazo[1,2-b]pyrazole-8-carboxamide]	1 to 100 nM	101 to 1000 nM	
NC(=O)c1cc(F)cc2[nH]c3c(C4CCN(CC5CC5)CC4)cnn3c12 [Example 5, 3-(1-(cyclopropylmethyl)piperidin-4-yl)-6-fluoro-4H-benzo[4,5]imidazo[1,2-b]pyrazole-8-carboxamide]	1 to 100 nM	1 to 100 nM	
Cc1nn2c([nH]c3cc(F)cc(C(N)=O)c32)c1C1(C)CCN(C(C)C)CC1 [Example 114, 6-fluoro-3-(1-isopropyl-4-methylpiperidin-4-yl)-2-methyl-4H-benzo[4,5]imidazo[1,2-b]pyrazole-8-carboxamide]	1 to 100 nM	1 to 100 nM	
CCCN1CCCC1c1cnn2c1[nH]c1cc(F)cc(C(N)=O)c12 (stereo not drawn) [Example 24, 6-fluoro-3-(1-propylpyrrolidin-2-yl)-4H-benzo[4,5]imidazo[1,2-b]pyrazole-8-carboxamide]	1 to 100 nM	101 to 1000 nM	
NC(=O)c1cc(F)cc2[nH]c3c(C4CCNCC4)cnn3c12 [Example 1, 6-fluoro-3-(piperidin-4-yl)-4H-benzo[4,5]imidazo[1,2-b]pyrazole-8-carboxamide]	1 to 100 nM	101 to 1000 nM	
CC1(c2cnn3c2[nH]c2cc(F)cc(C(N)=O)c23)CCN(Cc2nccs2)CC1 [Example 74, 6-fluoro-3-(4-methyl-1-(thiazol-2-ylmethyl)piperidin-4-yl)-4H-benzo[4,5]imidazo[1,2-b]pyrazole-8-carboxamide]	1 to 100 nM	101 to 1000 nM	
N#CC1(c2cnn3c2[nH]c2cc(F)cc(C(N)=O)c23)CCN(CC2CC2)CC1 [Example 108, 3-(4-cyano-1-(cyclopropylmethyl)piperidin-4-yl)-6-fluoro-4H-benzo[4,5]imidazo[1,2-b]pyrazole-8-carboxamide]	1 to 100 nM	1 to 100 nM	
Cc1ncc(CN2CCC(C)(c3cnn4c3[nH]c3cc(F)cc(C(N)=O)c34)CC2)n1C [Example 85, 3-(1-((1,2-dimethyl-1H-imidazol-5-yl)methyl)-4-methylpiperidin-4-yl)-6-fluoro-4H-benzo[4,5]imidazo[1,2-b]pyrazole-8-carboxamide]	1 to 100 nM	1 to 100 nM	
